Data on three compounds can be found in paper PMC7695847, “The structural basis of promiscuity in small multidrug resistance transporters” (Nature Communications, 2020).

Assay [1] deals with T1, EmrE (Escherichia coli, UniProt P23895).
T1 construct: full-length; N-terminal His6 tag with thrombin site; expressed in E. coli; homodimer; reconstituted in proteoliposomes
Put plainly: SSM electrophysiology, proteoliposomes. The note with it: 1 mM; pH 7.5; reference compound for normalisation. The assay is classed as biochemical.

In assay [2] the target is T1, EmrE. Put plainly: […]-methyl viologen uptake into proteoliposomes. The assay is classed as biochemical. The note with it: 7 µM 14C-methyl viologen; pH 7.5; labelled compound.
A further assay has as its system T2, Gdx-Clo.
T2 construct: gene HMPREF1982_00479; full-length; C-terminal His6 tag with LysC site, tag cleaved by LysC; expressed in E. coli C41(DE3); antiparallel homodimer
As to the kind of experiment: […]-Gdm+ uptake and SSM electrophysiology, proteoliposomes. The assay is classed as biochemical, Clostridiales bacterium oral taxon 876. The note with it: 20 µM 14C-Gdm+ or 1 mM (SSM); pH 7.5; labelled compound.

T1 sequence (P23895 whole entry): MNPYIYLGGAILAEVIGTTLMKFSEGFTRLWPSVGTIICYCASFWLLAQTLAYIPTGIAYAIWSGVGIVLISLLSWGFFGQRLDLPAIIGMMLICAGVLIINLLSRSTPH
T2 sequence (U2EQ00 entry or part of it): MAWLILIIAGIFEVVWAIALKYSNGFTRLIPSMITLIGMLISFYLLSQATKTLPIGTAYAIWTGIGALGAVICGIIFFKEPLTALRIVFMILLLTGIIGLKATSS

With `N=C(N)Nc1ccccc1` [phenylGdm^+], the “SSM electrophysiology, proteoliposomes” value on EmrE [1] is “methyl-, ethyl-, and phenylGdm^+ evoked increasingly larger currents”. Turning to `C[n+]1ccc(-c2cc[n+](C)cc2)cc1` [methyl viologen], the “14C-methyl viologen uptake into proteoliposomes” value at EmrE [2] is reported as “EmrE transports methyl viologen, but not Gdm^+”. Regarding `N=C(N)N` [Gdm^+], the “14C-Gdm+ uptake and SSM electrophysiology, proteoliposomes” value in the assay with Gdx-Clo is “Gdx-Clo transports Gdm^+, but not methyl viologen”.
